Legend:
Format in all cases: in vivo
[1] = test system: ivy-leaved morning glory (Ipomoea hederacea); assay: Test G Post-Emergence Protocol; conditions: Ipomoea, post-emergence, 312 h; for pest or weed control at 15.625 g/ha: 15.625 g ai/ha, evaluated after 13 days (100=total damage to plant; 0=no damage to plant), read-out: Morningglory, Ivy-leaved damage rating; for pest or weed control at 62.5 g/ha: 62.5 g ai/ha, read-out: Morningglory, Ivy-leaved damage rating (100=total damage to plant; 0=no damage to plant); for pest or weed control at 62.5 g/ha / pest or weed control at 250 g/ha: evaluated after 13 days; for pest or weed control at 250 g/ha: 250 g ai/ha, read-out: damage to plant, Morningglory, Ivy-leaved (100=total damage to plant; 0=no damage to plant)
Summary of the method: (§1)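 Scores run 0 (no damage) to 100 (total damage) and were taken 13 days after spraying. Plants had been raised in pots for 8 days under glasshouse control (24/16 °C, 14 h photoperiod, 65% humidity) and then treated at 15.625, 62.5 or 250 g/ha.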

[2] = test system: barnyardgrass (Echinochloa crus-galli); assay: Test G Post-Emergence Protocol; conditions: Echinochloa crus-galli, post-emergence, 312 h; for pest or weed control at 15.625 g/ha: 15.625 g ai/ha, evaluated after 13 days (100=total damage to plant; 0=no damage to plant), read-out: Barnyardgrass damage rating; for pest or weed control at 62.5 g/ha: 62.5 g ai/ha, read-out: Barnyardgrass damage rating (100=total damage to plant; 0=no damage to plant); for pest or weed control at 62.5 g/ha / pest or weed control at 250 g/ha: evaluated after 13 days; for pest or weed control at 250 g/ha: 250 g ai/ha, read-out: damage to plant, Barnyardgrass (100=total damage to plant; 0=no damage to plant)
Summary of the method: as §1

[3] = test system: giant foxtail (Setaria faberi); assay: Test G Post-Emergence Protocol; conditions: Setaria faberi, post-emergence, 312 h; for pest or weed control at 15.625 g/ha: 15.625 g ai/ha, evaluated after 13 days (100=total damage to plant; 0=no damage to plant), read-out: Foxtail, Giant damage rating; for pest or weed control at 62.5 g/ha: 62.5 g ai/ha, read-out: Foxtail, Giant damage rating (100=total damage to plant; 0=no damage to plant); for pest or weed control at 62.5 g/ha / pest or weed control at 250 g/ha: evaluated after 13 days; for pest or weed control at 250 g/ha: 250 g ai/ha, read-out: damage to plant, Foxtail, Giant (100=total damage to plant; 0=no damage to plant)
Summary of the method: as §1

[4] = test system: velvetleaf (Abutilon theophrasti); assay: Test G Post-Emergence Protocol; conditions: Abutilon theophrasti, post-emergence, 312 h; for pest or weed control at 15.625 g/ha: 15.625 g ai/ha, evaluated after 13 days (100=total damage to plant; 0=no damage to plant), read-out: Velvetleaf damage rating; for pest or weed control at 62.5 g/ha: 62.5 g ai/ha, read-out: Velvetleaf damage rating (100=total damage to plant; 0=no damage to plant); for pest or weed control at 62.5 g/ha / pest or weed control at 250 g/ha: evaluated after 13 days; for pest or weed control at 250 g/ha: 250 g ai/ha, read-out: damage to plant, Velvetleaf (100=total damage to plant; 0=no damage to plant)
Summary of the method: as §1

[5] = test system: redroot pigweed (Amaranthus retroflexus); assay: Test G Post-Emergence Protocol; conditions: Amaranthus retroflexus, post-emergence, 312 h; for pest or weed control at 15.625 g/ha: 15.625 g ai/ha, evaluated after 13 days (100=total damage to plant; 0=no damage to plant), read-out: Pigweed, Redroot damage rating; for pest or weed control at 62.5 g/ha: 62.5 g ai/ha, read-out: Pigweed, Redroot damage rating (100=total damage to plant; 0=no damage to plant); for pest or weed control at 62.5 g/ha / pest or weed control at 250 g/ha: evaluated after 13 days; for pest or weed control at 250 g/ha: 250 g ai/ha, read-out: damage to plant, Pigweed, Redroot (100=total damage to plant; 0=no damage to plant)
Summary of the method: as §1

corn (Zea mays) [6] = assay: Test G Post-Emergence Protocol; conditions: Zea mays, post-emergence, 312 h; for plant injury at 15.625 g/ha: 15.625 g ai/ha, evaluated after 13 days (100=total damage to plant; 0=no damage to plant), read-out: Corn damage rating; for plant injury at 62.5 g/ha: 62.5 g ai/ha, read-out: Corn damage rating (100=total damage to plant; 0=no damage to plant); for plant injury at 62.5 g/ha / plant injury at 250 g/ha: evaluated after 13 days; for plant injury at 250 g/ha: 250 g ai/ha, read-out: damage to plant, Corn (100=total damage to plant; 0=no damage to plant)
Summary of the method: as §1

[7] = test system: ivy-leaved morning glory (Ipomoea hederacea); assay: Test G Pre-Emergence Protocol; conditions: Ipomoea, pre-emergence, 312 h, evaluated after 13 days; for pest or weed control at 15.625 g/ha: 15.625 g ai/ha, read-out: Morning-glory, Ivy-leaved damage rating (100=total damage to plant; 0=no damage to plant); for pest or weed control at 62.5 g/ha: 62.5 g ai/ha, 100=total damage to plant, 0=no damage to plant, read-out: plant damage rating, Morningglory, Ivy-leaved; for pest or weed control at 250 g/ha: 250 g ai/ha, read-out: Morningglory, Ivy-leaved damage rating (100=total damage to plant; 0=no damage to plant)
Summary of the method: (§2)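 Seeds were sown in standard soil and kept one day in a glasshouse (24/16° C day/night, 14 h light, 65% humidity), then sprayed with compound in acetone/water (50:50) containing 0.5% Tween 20 at 15.625, 62.5 or 250 g/ha. Damage was scored after 13 days (0 = none, 100 = total).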

[8] = test system: barnyardgrass (Echinochloa crus-galli); assay: Test G Pre-Emergence Protocol; conditions: Echinochloa crus-galli, pre-emergence, 312 h, evaluated after 13 days; for pest or weed control at 15.625 g/ha: 15.625 g ai/ha, read-out: Barnyard grass damage rating (100=total damage to plant; 0=no damage to plant); for pest or weed control at 62.5 g/ha: 62.5 g ai/ha, 100=total damage to plant, 0=no damage to plant, read-out: plant damage rating, Barnyardgrass; for pest or weed control at 250 g/ha: 250 g ai/ha, read-out: Barnyardgrass damage rating (100=total damage to plant; 0=no damage to plant)
Summary of the method: as §2

[9] = test system: giant foxtail (Setaria faberi); assay: Test G Pre-Emergence Protocol; conditions: Setaria faberi, pre-emergence, 312 h, evaluated after 13 days; for pest or weed control at 15.625 g/ha: 15.625 g ai/ha; for pest or weed control at 15.625 g/ha / pest or weed control at 250 g/ha: read-out: Foxtail, Giant damage rating (100=total damage to plant; 0=no damage to plant); for pest or weed control at 62.5 g/ha: 62.5 g ai/ha, 100=total damage to plant, 0=no damage to plant, read-out: plant damage rating, Foxtail, Giant; for pest or weed control at 250 g/ha: 250 g ai/ha
Summary of the method: as §2

[10] = test system: velvetleaf (Abutilon theophrasti); assay: Test G Pre-Emergence Protocol; conditions: Abutilon theophrasti, pre-emergence, 312 h, evaluated after 13 days; for pest or weed control at 15.625 g/ha: 15.625 g ai/ha; for pest or weed control at 15.625 g/ha / pest or weed control at 250 g/ha: read-out: Velvetleaf damage rating (100=total damage to plant; 0=no damage to plant); for pest or weed control at 62.5 g/ha: 62.5 g ai/ha, 100=total damage to plant, 0=no damage to plant, read-out: plant damage rating, Velvetleaf; for pest or weed control at 250 g/ha: 250 g ai/ha
Summary of the method: as §2

[11] = test system: redroot pigweed (Amaranthus retroflexus); assay: Test G Pre-Emergence Protocol; conditions: Amaranthus retroflexus, pre-emergence, 312 h, evaluated after 13 days; for pest or weed control at 15.625 g/ha: 15.625 g ai/ha; for pest or weed control at 15.625 g/ha / pest or weed control at 250 g/ha: read-out: Pigweed, Redroot damage rating (100=total damage to plant; 0=no damage to plant); for pest or weed control at 62.5 g/ha: 62.5 g ai/ha, 100=total damage to plant, 0=no damage to plant, read-out: plant damage rating, Pigweed, Redroot; for pest or weed control at 250 g/ha: 250 g ai/ha
Summary of the method: as §2

corn (Zea mays) [12] = assay: Test G Pre-Emergence Protocol; conditions: Zea mays, pre-emergence, 312 h, evaluated after 13 days; for plant injury at 15.625 g/ha: 15.625 g ai/ha; for plant injury at 15.625 g/ha / plant injury at 250 g/ha: read-out: Corn damage rating (100=total damage to plant; 0=no damage to plant); for plant injury at 62.5 g/ha: 62.5 g ai/ha, 100=total damage to plant, 0=no damage to plant, read-out: plant damage rating, Corn; for plant injury at 250 g/ha: 250 g ai/ha
Summary of the method: as §2

SMILES	pest or weed control at 15.625 g/ha [1]	pest or weed control at 62.5 g/ha [1]	pest or weed control at 250 g/ha [1]	pest or weed control at 15.625 g/ha [2]	pest or weed control at 62.5 g/ha [2]	pest or weed control at 250 g/ha [2]	pest or weed control at 15.625 g/ha [3]	pest or weed control at 62.5 g/ha [3]	pest or weed control at 250 g/ha [3]	pest or weed control at 15.625 g/ha [4]	pest or weed control at 62.5 g/ha [4]	pest or weed control at 250 g/ha [4]	pest or weed control at 15.625 g/ha [5]	pest or weed control at 62.5 g/ha [5]	pest or weed control at 250 g/ha [5]	plant injury at 15.625 g/ha (corn (Zea mays) [6])	plant injury at 62.5 g/ha (corn (Zea mays) [6])	plant injury at 250 g/ha (corn (Zea mays) [6])	pest or weed control at 15.625 g/ha [7]	pest or weed control at 62.5 g/ha [7]	other results
CN1C[C@@H](c2ccc(C(F)(F)F)cc2)[C@H](C(=O)Nc2nccc(C(F)(F)F)n2)C1=O (racemic) [Compound 1547]	0%	0%	0%	0%	0%	0%	0%	0%	0%	0%	0%	0%	0%	0%	0%	0%	0%	0%	0%	0%	pest or weed control at 250 g/ha [7]: 0%; pest or weed control at 15.625 g/ha [8]: 0%; pest or weed control at 62.5 g/ha [8]: 0%; pest or weed control at 250 g/ha [8]: 0%; pest or weed control at 15.625 g/ha [9]: 0%; pest or weed control at 62.5 g/ha [9]: 0%; pest or weed control at 250 g/ha [9]: 0%; pest or weed control at 15.625 g/ha [10]: 0%; pest or weed control at 62.5 g/ha [10]: 0%; pest or weed control at 250 g/ha [10]: 0%; pest or weed control at 15.625 g/ha [11]: 0%; pest or weed control at 62.5 g/ha [11]: 0%; pest or weed control at 250 g/ha [11]: 0%; plant injury at 15.625 g/ha (corn (Zea mays) [12]): 0%; plant injury at 62.5 g/ha (corn (Zea mays) [12]): 0%; plant injury at 250 g/ha (corn (Zea mays) [12]): 0%
CN1C[C@@H](c2ccc(C(F)(F)F)cc2)[C@H](C(=O)Nc2nnc(C(F)(F)F)[nH]2)C1=O (racemic) [Compound 1550]	0%	0%	0%	0%	0%	0%	0%	0%	0%	0%	0%	0%	0%	30%	40%	0%	10%	30%	0%	0%	pest or weed control at 250 g/ha [7]: 0%; pest or weed control at 15.625 g/ha [8]: 0%; pest or weed control at 62.5 g/ha [8]: 0%; pest or weed control at 250 g/ha [8]: 0%; pest or weed control at 15.625 g/ha [9]: 0%; pest or weed control at 62.5 g/ha [9]: 0%; pest or weed control at 250 g/ha [9]: 0%; pest or weed control at 15.625 g/ha [10]: 0%; pest or weed control at 62.5 g/ha [10]: 0%; pest or weed control at 250 g/ha [10]: 0%; pest or weed control at 15.625 g/ha [11]: 0%; pest or weed control at 62.5 g/ha [11]: 0%; pest or weed control at 250 g/ha [11]: 0%; plant injury at 15.625 g/ha (corn (Zea mays) [12]): 0%; plant injury at 62.5 g/ha (corn (Zea mays) [12]): 0%; plant injury at 250 g/ha (corn (Zea mays) [12]): 0%
CN1C[C@@H](c2ccc(C(F)(F)F)cc2)[C@H](C(=O)Nc2[nH]ncc2C#N)C1=O (racemic) [Compound 1551]	0%	0%	0%	0%	0%	0%	0%	0%	0%	0%	0%	0%	0%	0%	0%	0%	0%	10%	0%	0%	pest or weed control at 250 g/ha [7]: 0%; pest or weed control at 15.625 g/ha [8]: 0%; pest or weed control at 62.5 g/ha [8]: 0%; pest or weed control at 250 g/ha [8]: 0%; pest or weed control at 15.625 g/ha [9]: 0%; pest or weed control at 62.5 g/ha [9]: 0%; pest or weed control at 250 g/ha [9]: 0%; pest or weed control at 15.625 g/ha [10]: 0%; pest or weed control at 62.5 g/ha [10]: 0%; pest or weed control at 250 g/ha [10]: 0%; pest or weed control at 15.625 g/ha [11]: 0%; pest or weed control at 62.5 g/ha [11]: 0%; pest or weed control at 250 g/ha [11]: 0%; plant injury at 15.625 g/ha (corn (Zea mays) [12]): 0%; plant injury at 62.5 g/ha (corn (Zea mays) [12]): 0%; plant injury at 250 g/ha (corn (Zea mays) [12]): 0%
